Reference: PubChem BioAssay (NCI)
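Briefly, cells in 96-well plates were exposed to five compound concentrations for 48 h, and endpoints were estimated by linear interpolation. The concentration for full growth arrest is given as TGI.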

What was measured:
Test in all cases: DTP human tumour cell line panel, 48 h
[1] = system: UACC-62 melanoma
[2] = system: MOLT-4 leukemia
[3] = system: LOX IMVI melanoma
[4] = system: EKVX NSCLC
[5] = system: SF-539 CNS
[6] = system: SK-MEL-5 melanoma
[7] = system: KM20L2 colon
[8] = system: SN12C renal
[9] = system: NCI-H522 lung
[10] = system: A498 renal
[11] = system: HT29 colon
[12] = system: SF-268 CNS
[13] = system: SR leukemia
[14] = system: IGROV1 ovarian
[15] = system: CCRF-CEM leukemia
[16] = system: SW-620 colon
[17] = system: HCT-15 colon
[18] = system: ACHN renal
[19] = system: SK-MEL-2 melanoma
[20] = system: SNB-19 CNS
[21] = system: M14 melanoma
[22] = system: SNB-78 CNS
[23] = system: SK-OV-3 ovarian
[24] = system: U251 CNS
[25] = system: RPMI-8226 leukemia
[26] = system: OVCAR-3 ovarian
[27] = system: HCC-2998 colon
[28] = system: SNB-75 CNS
[29] = system: NCI-H23 lung
[30] = system: TK-10 renal
[31] = system: OVCAR-4 ovarian
[32] = system: 786-0 renal
[33] = system: OVCAR-8 ovarian
[34] = system: CAKI-1 renal
[35] = system: LXFL 529 NSCLC
[36] = system: OVCAR-5 ovarian
[37] = system: DLD-1 colon
[38] = system: HCT-116 colon
[39] = system: MALME-3M melanoma
[40] = system: M19-MEL melanoma
[41] = system: UO-31 renal
[42] = system: HOP-92 NSCLC
[43] = system: COLO 205 colon
[44] = system: HOP-62 NSCLC
[45] = system: K-562 leukemia
[46] = system: DMS 273 small cell lung
[47] = system: SK-MEL-28 melanoma
[48] = system: KM12 colon
[49] = system: XF 498 CNS
[50] = system: A549 NSCLC
[51] = system: NCI-H460 lung
[52] = system: DMS 114 small cell lung
[53] = system: NCI-H226 lung
[54] = system: SF-295 CNS
[55] = system: UACC-257 melanoma
[56] = system: HOP-18 NSCLC

Measured: TGI

CCOC(=O)CN(Cc1ccccc1)Cc1c(C(=O)c2ccccc2)c2ccccc2n1C(=O)c1ccccc1
> 100 µM: [1] | [2] | [3] | [4] | [5] | [6] | [7] | [8] | [9] | [10] | [11] | [12] | [13] | [14] | [15] | [16] | [17] | [18] | [19] | [20] | [21] | [22] | [23] | [24] | [25] | [26] | [27] | [28] | [29] | [30] | [31] | [32] | [33] | [34] | [35] | [36] | [37] | [38] | [39] | [40] | [41] | [42] | [43] | [44] | [45] | [46] | [47] | [48] | [49] | [50] | [51] | [52] | [53] | [54]

COc1ccc(CCC2NCCc3cc(OC)c(OC)cc32)cc1 (centres undefined)
> 100 µM: [55] | [2] | [4] | [5] | [6] | [7] | [8] | [9] | [10] | [11] | [12] | [15] | [16] | [56] | [17] | [18] | [19] | [20] | [21] | [22] | [24] | [25] | [26] | [27] | [28] | [29] | [30] | [31] | [32] | [33] | [34] | [35] | [36] | [37] | [38] | [39] | [41] | [44] | [45] | [47] | [48] | [49] | [50] | [51] | [54]
